This is an account of results in ChEMBL document CHEMBL4130498, “Synthesis and antibacterial activity of new symmetric polyoxygenated dibenzofurans” (Eur J Med Chem, 2017).

Converted amounts (≈) assume the structure as drawn. Counter-ions that a name gives are not always drawn.

In data set [1] the test system is Saccharomyces cerevisiae. Nature of the data set: Toxicity in Saccharomyces cerevisiae BY4741 after 24 to 48 hrs by broth microdilution method. To be noted: in vivo. Type of data set: organism-based.
The subject of data set [2] is Saccharomyces cerevisiae. Put plainly: Toxicity in Saccharomyces cerevisiae harboring yap1 deletion mutant after 24 to 48 hrs by broth microdilution method. To be noted: in vivo. The class given is organism-based. (Broth dilution looks for growth in wells or tubes with falling amounts of substance.)
A further data set relates to Enterococcus faecalis. Put plainly: microbe, parasite or virus in culture. Conditions: ATCC 29212, 24 h. The class given is functional.
In data set [3] the test system is Saccharomyces cerevisiae. Nature of the data set: Toxicity in Saccharomyces cerevisiae harboring rad52/rad9 deletion mutant after 24 to 48 hrs by broth microdilution method. Type of data set: organism-based. Conditions: in vivo.
The subject of data set [4] is Staphylococcus aureus. Nature of the data set: Antibacterial activity against methicillin-sensitive Staphylococcus aureus ATCC 25923 after 24 hrs by broth microdilution method. The class given is functional. Conditions: ATCC 25923, 24 h.
Data set [5] deals with Staphylococcus aureus. Put plainly: Antibacterial activity against methicillin-resistant vancomycin-intermediate resistant Staphylococcus aureus NRS402 after 24 hrs by broth microdilution method. Type of data set: functional. To be noted: NRS402, 24 h.
For data set [6], the system named is Saccharomyces cerevisiae. Put plainly: Toxicity in Saccharomyces cerevisiae harboring mad2 deletion mutant after 24 to 48 hrs by broth microdilution method. Conditions: in vivo. Type of data set: organism-based.
Data set [7] has as its system Saccharomyces cerevisiae. Put plainly: Toxicity in Saccharomyces cerevisiae BY4741 assessed as cell growth at 128 uM after 24 to 48 hrs by broth microdilution method relative to control. The class given is organism-based.
Data set [8] deals with Saccharomyces cerevisiae. Put plainly: Toxicity in Saccharomyces cerevisiae harboring rad52/rad9 deletion mutant assessed as cell growth at 128 uM after 24 to 48 hrs by broth microdilution method relative to control. The class given is organism-based. Conditions: in vivo.
The test system of data set [9] is Saccharomyces cerevisiae. Nature of the data set: Toxicity in Saccharomyces cerevisiae harboring mad2 deletion mutant assessed as cell growth at 128 uM after 24 to 48 hrs by broth microdilution method relative to control. The class given is organism-based. Conditions: in vivo.
For data set [10], the system named is Saccharomyces cerevisiae. Nature of the data set: Toxicity in Saccharomyces cerevisiae harboring yap1 deletion mutant assessed as cell growth at 128 uM after 24 to 48 hrs by broth microdilution method relative to control. Type of data set: organism-based. To be noted: in vivo.

Description for Enterococcus faecalis: Antibacterial activity against Enterococcus faecalis ATCC 29212 after 24 hrs by broth microdilution method

Consider `Oc1cc(O)c2c(c1)oc1cc(O)cc(O)c12`, for which the MIC against Saccharomyces cerevisiae [1], against Saccharomyces cerevisiae [2], in the data set on Enterococcus faecalis, in the data set with Saccharomyces cerevisiae [3], in the data set on Staphylococcus aureus [4] and with Staphylococcus aureus [5] was above 128 µM in each case. The MIC in the data set with Saccharomyces cerevisiae [6] is above 128 µM.
For the compound `CCC(C)C(=O)c1c(O)cc(O)cc1O` (stereo not given), the MIC against Saccharomyces cerevisiae [1] was above 128 µM; with Saccharomyces cerevisiae [2], above 128 µM; in the data set on Enterococcus faecalis, 64 µM (≈ 13.5 µg/mL); in the data set with Saccharomyces cerevisiae [3], above 128 µM; in the data set with Staphylococcus aureus [4], 64 µM (≈ 13.5 µg/mL); in the data set on Staphylococcus aureus [5], 32 µM (≈ 6.73 µg/mL). The compound also had an MIC in the data set with Saccharomyces cerevisiae [6] above 128 µM.
Take `CCC(C)C(=O)c1c(O)cc(O)c2c1oc1c(C(=O)C(C)CC)c(O)cc(O)c12` (stereo not given): the MIC against Saccharomyces cerevisiae [1] was above 128 µM; in the data set with Saccharomyces cerevisiae [2], above 128 µM; in the data set on Enterococcus faecalis, 32 µM (≈ 12.8 µg/mL); against Saccharomyces cerevisiae [3], above 128 µM; with Staphylococcus aureus [4] it was 8 µM (≈ 3.2 µg/mL); in the data set with Staphylococcus aureus [5], 8 µM (≈ 3.2 µg/mL). This compound had an MIC in the data set with Saccharomyces cerevisiae [6] above 128 µM.
As to `CCC(C)C(=O)c1c(O)cc(O)c(CCC(C)C)c1O` (stereo not given), the MIC was above 128 µM in the data set with Saccharomyces cerevisiae [1]; above 128 µM against Saccharomyces cerevisiae [2]; 32 µM (≈ 8.97 µg/mL) against Enterococcus faecalis; above 128 µM in the data set with Saccharomyces cerevisiae [3]; 32 µM (≈ 8.97 µg/mL) in the data set with Staphylococcus aureus [4]; 32 µM (≈ 8.97 µg/mL) against Staphylococcus aureus [5]. Also, the MIC in the data set with Saccharomyces cerevisiae [6] was above 128 µM. Moreover, the Activity with Saccharomyces cerevisiae [7], in the data set with Saccharomyces cerevisiae [8], with Saccharomyces cerevisiae [9] and in the data set on Saccharomyces cerevisiae [10] was 20 to 40% in each case.
For the compound `CCC(C)C(=O)c1c(O)c(CCC(C)C)c(O)c(-c2c(O)c(CCC(C)C)c(O)c(C(=O)C(C)CC)c2O)c1O` (stereo not given), the MIC is above 128 µM in the data set on Saccharomyces cerevisiae [1]; above 128 µM in the data set with Saccharomyces cerevisiae [2]; 4 µM (≈ 2.23 µg/mL) in the data set with Enterococcus faecalis; above 128 µM in the data set on Saccharomyces cerevisiae [3]; 8 µM (≈ 4.47 µg/mL) with Staphylococcus aureus [4]; 1 µM (≈ 0.559 µg/mL) against Staphylococcus aureus [5]. Moreover, the MIC against Saccharomyces cerevisiae [6] was above 128 µM.
For the compound `CCCc1c(O)c(C(=O)C(C)CC)c(O)c(-c2c(O)c(CCC)c(O)c(C(=O)C(C)CC)c2O)c1O` (stereo not given), the MIC against Saccharomyces cerevisiae [1] is above 128 µM; in the data set with Saccharomyces cerevisiae [2], above 128 µM; in the data set on Enterococcus faecalis, 2 µM (≈ 1.01 µg/mL); in the data set with Saccharomyces cerevisiae [3], above 128 µM; in the data set on Staphylococcus aureus [4], 4 µM (≈ 2.01 µg/mL); with Staphylococcus aureus [5], 0.5 µM (≈ 0.251 µg/mL). Also, the MIC against Saccharomyces cerevisiae [6] is above 128 µM.
On to `CCCc1c(O)cc(O)c(C(=O)C(C)CC)c1O` (stereo not given), for which the MIC in the data set on Saccharomyces cerevisiae [1] was above 128 µM; with Saccharomyces cerevisiae [2], above 128 µM; against Enterococcus faecalis, 64 µM (≈ 16.1 µg/mL); against Saccharomyces cerevisiae [3], above 128 µM; with Staphylococcus aureus [4], 64 µM (≈ 16.1 µg/mL); in the data set with Staphylococcus aureus [5], 64 µM (≈ 16.1 µg/mL). Besides, in the data set with Saccharomyces cerevisiae [6], the MIC was above 128 µM. Further, the Activity in the data set on Saccharomyces cerevisiae [7], in the data set with Saccharomyces cerevisiae [8], in the data set on Saccharomyces cerevisiae [9] and in the data set with Saccharomyces cerevisiae [10] was 20 to 40% each time.
As for `CCCc1c(O)c(C(=O)C(C)CC)c2oc3c(C(=O)C(C)CC)c(O)c(CCC)c(O)c3c2c1O` (stereo not given), the MIC with Saccharomyces cerevisiae [1] is above 128 µM; with Saccharomyces cerevisiae [2] it was above 128 µM; in the data set on Enterococcus faecalis it was 0.5 µM (≈ 0.242 µg/mL); in the data set with Saccharomyces cerevisiae [3], above 128 µM; against Staphylococcus aureus [4], 0.5 µM (≈ 0.242 µg/mL); in the data set on Staphylococcus aureus [5], 0.5 µM (≈ 0.242 µg/mL). The MIC in the data set on Saccharomyces cerevisiae [6] is above 128 µM.
On to `Cc1onc(-c2ccccc2)c1C(=O)N[C@@H]1C(=O)N2[C@@H]1SC(C)(C)[C@@H]2C(=O)O`, for which the MIC is 9.5 µM (≈ 3.81 µg/mL) against Enterococcus faecalis, at most 0.3 µM in the data set on Staphylococcus aureus [4] and 150 µM (≈ 60.2 µg/mL) in the data set with Staphylococcus aureus [5].
Regarding `CN[C@H](CC(C)C)C(=O)N[C@H]1C(=O)N[C@@H](CC(N)=O)C(=O)N[C@H]2C(=O)N[C@H]3C(=O)N[C@H](C(=O)N[C@H](C(=O)O)c4cc(O)cc(O)c4-c4cc3ccc4O)[C@H](O)c3ccc(c(Cl)c3)Oc3cc2cc(c3O[C@@H]2O[C@H](CO)[C@@H](O)[C@H](O)[C@H]2O[C@H]2C[C@](C)(N)[C@H](O)[C@H](C)O2)Oc2ccc(cc2Cl)[C@H]1O` [VANCOMYCIN HYDROCHLORIDE], the MIC is 1.4 µM with Enterococcus faecalis, 0.7 µM in the data set with Staphylococcus aureus [4] and 5.5 µM with Staphylococcus aureus [5].
